Assay [1] relates to CD8+ T cells. The experiment in a line: In vitro immunogenicity: priming of CD8+ T cells with aAPCs loaded with peptide/MHC and anti-CD28, multimer readout. In kind it is cell-based, human. The conditions noted are these: for Wells positive [%]: HLA-A*02 restricted peptides, percentage of positive wells (among evaluable). The protocol: In an aspect, the peptides are pre-screened for immunogenicity before being included in the warehouse. By way of example, and not limitation, the immunogenicity of the peptides included in the warehouse is determined by a method comprising in vitro T-cell priming through repeated stimulations of CD8+ T cells from healthy donors with artificial antigen presenting cells loaded with peptide/MHC complexes and anti-CD28 antibody.
FIGS. 3A to 3F show exemplary immunogenicity data: flow cytometry results after peptide-specific multimer staining. CD8+ T cells were primed using artificial APCs coated with anti-CD28 mAb and HLA-A*02 in complex with SeqID No 662 (FIG. 3A, left panel), SeqID No 663 (FIG. 3B, left panel), SeqID No 11 peptide (FIG. 3C, left panel), SeqID No 198 peptide (FIG. 3D, left panel), SeqID No 587 peptide (FIG. 3E, left panel) and SeqID No 427 peptide (FIG. 3F, left panel), respectively. After three cycles of stimulation, the detection of peptide-reactive cells was performed by 2D multimer staining with A*02/SeqID No 662 (FIG. 3A), A*02/SeqID No 663 (FIG. 3B), A*02/SeqID No 11 (FIG. 3C), A*02/SeqID No 198 (FIG. 3D), A*02/SeqID No 587 (FIG. 3E) or A*02/SeqID No 427 (FIG. 3F). Right panels (FIGS. 3A, 3B, 3C, 3D, 3E, and 3F) show control staining of cells stimulated with irrelevant A*02/peptide complexes. Viable singlet cells were gated for CD8+ lymphocytes. Boolean gates helped excluding false-positive events detected with multimers specific for different peptides. Frequencies of specific multimer+ cells among CD8+ lymphocytes are indicated.
In Vitro Immunogenicity for MHC Class I Presented Peptides
In order to obtain information regarding the immunogenicity of the TUMAPs of the present invention, the inventors performed investigations using an in vitro T-cell priming assay based on repeated stimulations of CD8+ T cells with artificial antigen presenting cells (aAPCs) loaded with peptide/MHC complexes and anti-CD28 antibody.
In Vitro Priming of CD8+ T Cells
In order to perform in vitro stimulations by artificial antigen presenting cells loaded with peptide-MHC complex (pMHC) and anti-CD28 antibody, the inventors first isolated CD8+ T cells from fresh HLA-A*02 leukapheresis products via positive selection using CD8 microbeads (Miltenyi Biotec, Bergisch-Gladbach, Germany) of healthy donors obtained from the University clinics Mannheim, Germany, after informed consent.
PBMCs and isolated CD8+ lymphocytes were incubated in T-cell medium (TCM) until use consisting of RPMI-Glutamax (Invitrogen, Karlsruhe, Germany) supplemented with 10% heat inactivated human AB serum (PAN-Biotech, Aidenbach, Germany), 100 U/ml Penicillin/100 μg/ml Streptomycin (Cambrex, Cologne, Germany), 1 mM sodium pyruvate (CC Pro, Oberdorla, Germany), 20 μg/ml Gentamycin (Cambrex). 2.5 ng/ml IL-7 (PromoCell, Heidelberg, Germany) and 10 U/ml IL-2 (Novartis Pharma, Nümberg, Germany) were also added to the TCM at this step.
Generation of pMHC/anti-CD28 coated beads, T-cell stimulations and readout was performed in a highly defined in vitro system using four different pMHC molecules per stimulation condition and 8 different pMHC molecules per readout condition.
The purified co-stimulatory mouse IgG2a anti human CD28 Ab 9.3 (Jung et al., 1987) was chemically biotinylated using Sulfo-N-hydroxysuccinimidobiotin as recommended by the manufacturer (Perbio, Bonn, Germany). Beads used were 5.6 μm diameter streptavidin coated polystyrene particles (Bangs Laboratories, Illinois, USA).
pMHC used for positive and negative control stimulations were A*0201/MLA-001 (peptide […] (SEQ ID NO. 664) from modified Melan-A/MART-1) and A*0201/DDX5-001 ([…] from DDX5, SEQ ID NO. 665), respectively.
800.000 beads/200 μl were coated in 96-well plates in the presence of 4×12.5 ng different biotin-pMHC, washed and 600 ng biotin anti-CD28 were added subsequently in a volume of 200 μl. […]

For assay [2], the target named is HLA-A*02:01 (Homo sapiens, UniProt P04439, D140Y/D185E/D98H/E176V/E277Q/G131W/G231S/I119V/I121R/I166T/I218V/L300P/L318F/N151K/N90K/P208A/P217A/Q86G/Q94H/R138H/R169H/T345S). The experiment in a line: MHC binding assay (UV-ligand exchange, anti-β2m ELISA, peptide exchange yield). As to conditions: binding to HLA-A*02:01. In short, it runs like this:
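Peptide-MHC complexes formed by UV-ligand exchange, cleaving a UV-sensitive placeholder peptide in favour of the test peptide. Exchange yield measured by ELISA: monomers diluted 100-fold onto streptavidin-coated plates, 1 h 37 °C, detected with 2 ug/ml HRP anti-β2m and TMB, absorbance at 450 nm.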

Regarding “157 (SLNDEVPEV; listed as Homo sapiens) [compound 157]”, in assay [1], the “Wells positive [%]” value was ““+++” (50% - 69% = +++)”. In addition, the “Peptide exchange (MHC class I binding score, peptide exchange yield)” value (“Peptide exchange” for short) in assay [2] was ““++” (>20% = ++)”.
The like results for “603 (FLIEPEHVNTV; listed as Homo sapiens) [compound 603]” were, in that order, ““+” (<20% = +)” and ““++” (>20% = ++)”.
Consider “454 (KLPPPPPQA; listed as Homo sapiens) [compound 454]”, for which the “Wells positive [%]” value in assay [1] is ““++” (20% - 49% = ++)”. The “Peptide exchange” value in assay [2] is ““+++” (>50 = +++)”.
On the same counts, the results for “79 (SLFIGEKAVLL; listed as Homo sapiens) [compound 79]” are ““+” (<20% = +)” and ““+++” (>50 = +++)”.
The like results for “395 (ALALGGIAVV; listed as Homo sapiens) [compound 395]” were, in that order, ““+++” (50% - 69% = +++)” and ““++++” (>75% = ++++)”.
Turning to “36 (YVLEDLEVTV; listed as Homo sapiens) [compound 36]”, the “Wells positive [%]” value in assay [1] is on record as ““+” (<20% = +)”. Moreover, in assay [2], the “Peptide exchange” value was ““++” (>20% = ++)”.
For “283 (ALYIGDGYVIHLA; listed as Homo sapiens) [compound 283]”, the donors result in assay [1] (percentage of positive donors) is “+++ (50% - 69% = +++)”. In assay [1] (percentage of positive wells), the wells result is “+ (<20% = +)”. For the same substance, in assay [2], the “Peptide exchange” value is reported as ““+++” (>50 = +++)”.
Turning to “3 (SLASKLTTL; listed as Homo sapiens) [compound 3]”, the “Wells positive [%]” value in assay [1] is reported as ““+” (<20% = +)”. The “Peptide exchange” value in assay [2] is ““++++” (>75% = ++++)”.
The like results for “56 (KLYEGIPVLL; listed as Homo sapiens) [compound 56]” were, in that order, ““+” (<20% = +)” and ““++++” (>75% = ++++)”.
The like results for “384 (ILFANPNIFV; listed as Homo sapiens) [compound 384]” were, in that order, ““+” (<20% = +)” and ““+++” (>50 = +++)”.
Consider “247 (VLLPNDLLEKV; listed as Homo sapiens) [compound 247]”, for which, in assay [1], the “Wells positive [%]” value is ““+” (<20% = +)”. Moreover, the “Peptide exchange” value in assay [2] was ““+++” (>50 = +++)”.
On the same counts, the results for “143 (LLLDITPEI; listed as Homo sapiens) [compound 143]” are ““+” (<20% = +)” and ““++++” (>75% = ++++)”.
On the same counts, the results for “141 (YLDFSNNRL; listed as Homo sapiens) [compound 141]” are ““+” (<20% = +)” and ““++” (>20% = ++)”.
As for “518 (KLNAEVACV; listed as Homo sapiens) [compound 518]”, the “Wells positive [%]” value in assay [1] is given as ““++” (20% - 49% = ++)”. The “Peptide exchange” value in assay [2] is on record as ““+++” (>50 = +++)”.
As to “61 (FLQGYQLHL; listed as Homo sapiens) [compound 61]”, in assay [1], the “Wells positive [%]” value was ““++” (20% - 49% = ++)”. For the same substance, the “Peptide exchange” value in assay [2] is ““++++” (>75% = ++++)”.
The like results for “199 (ALQDVPLSSV; listed as Homo sapiens) [compound 199]” were, in that order, ““+” (<20% = +)” and ““+++” (>50 = +++)”.
On the same counts, the results for “319 (SLEPQIQPV; listed as Homo sapiens) [compound 319]” are ““+” (<20% = +)” and ““++” (>20% = ++)”.
The like results for “198 (KTINKVPTV; listed as Homo sapiens) [compound 198]” were, in that order, ““++” (20% - 49% = ++)” and ““+++” (>50 = +++)”.
With “499 (KIFDIDEAEEGV; listed as Homo sapiens) [compound 499]”, the “Wells positive [%]” value in assay [1] is given as ““+” (<20% = +)”. Also, in assay [2], the “Peptide exchange” value is reported as ““++” (>20% = ++)”.

(Values after US10239925B2, “Peptides and combination of peptides for use in immunotherapy against ovarian cancer and other cancers” (IMMATICS BIOTECHNOLOGIES GMBH, priority 2015, dated 2019).)
